Calls of active or inactive are those of the source. How the calls were made is not given here.

The source of these data is ChEMBL document CHEMBL3714755, “Pyridinyl amides as P2X3 and P2X2/3 inhibitors” (2014).

This test addresses P2X2/P2X3 heterotrimeric receptor (Homo sapiens) (UniProt Q9UBL9+P56373). Kind of test: Antagonist activity against human P2X2/3 receptor expressed in CHOK1 cells assessed as inhibition of alpha,beta-meATP-induced calcium response incubated for 20 mins by Fluo-3AM dye based FLIPR assay. It is filed as functional, cell-based. The settings on record: CHO-K1.

On to `CCN(C(=O)OCC(C)C)c1cc(C(=O)NC(C)c2cnccn2)cc(-c2ccc(C)cc2)c1` (configuration not stated), for which the inhibition result is “Active”.
Under `CC(=O)N1CCC(C(=O)N(C)c2cc(C(=O)NC(C)c3cnccn3)cc(-c3ccc(C)cc3)c2)CC1` (configuration not stated) stands “Active”; under `Cc1ccc(-c2cc(C(=O)NC(C)c3cnccn3)cc(N(C)C(=O)c3snnc3C)c2)cc1` (configuration not stated), “Active”.
For the molecule `CC(NC(=O)c1cc(-c2ccc(Cl)cc2)cc(N(C)C(=O)N(C)C)c1)c1cnccn1` (configuration not stated), the inhibition entry was “Active”.
In the case of `CC(C)C(=O)N(C)c1cc(C(=O)NC(C)c2cnccn2)cc(-c2ccc(Cl)cc2Cl)c1` (configuration not stated) it was “Active”; in that of `Cc1ccc(-c2cc(C(=O)NC(C)c3cnccn3)cc(N(C)C(=O)C3CCCC3)c2)cc1` (configuration not stated), “Active”.
Under `Cc1ccc(-c2cc(C(=O)N[C@@H](C)CO)cc(N(C)C(=O)C3CCCC3)c2)cc1` stands “Active”; under `CCN(C(=O)C1CCOCC1)c1cc(C(=O)NC(C)c2cnccn2)cc(-c2ccc(C)cc2)c1` (configuration not stated), “Active”; under `CC(C)C(=O)N(C)c1cc(C(=O)NCc2cnccn2)cc(-c2ccc(Cl)cn2)c1`, “Active”.
Under `CCN(C(=O)CC(C)C)c1cc(C(=O)NC(C)c2cnccn2)cc(-c2ccc(C)cc2)c1` (configuration not stated) stands “Active”; under `COCC(C)NC(=O)c1cc(NC(=O)c2cscn2)cc(-c2ccc(C)cc2)c1` (configuration not stated), “Active”.
With `Cc1ccc(-c2cc(C(=O)NC(C)c3cnccn3)cc(N(C)C(=O)C(C)C)c2)c(F)c1` (configuration not stated), the inhibition entry is “Active”.
In the case of `Cc1ccc(-c2cc(C(=O)NCc3cnccn3)cc(N(C)C(=O)C(C)C)c2)c(F)c1` it was “Active”; in that of `CC(C)C(=O)N(C)c1cc(C(=O)N[C@@H](C)CO)cc(-c2ccc(Cl)cn2)c1`, “Active”.
Under `CC(=O)N(c1cc(C(=O)NC(C)c2cnccn2)cc(-c2ccc(C)cc2)c1)c1ccncn1` (configuration not stated) stands “Active”; under `COCC(C)NC(=O)c1cc(NC(=O)c2ccco2)cc(-c2ccc(C)cc2)c1` (configuration not stated), “Active”; under `CCC(C)C(=O)N(C)c1cc(C(=O)N[C@@H](C)CO)cc(-c2ccc(C)cc2)c1` (some centres not stated), “Active”.
`Cc1ccc(-c2cc(C(=O)N[C@@H](C)CO)cc(N(C)C(=O)C(C)C)c2)c(F)c1`: the inhibition result was “Active”.
As for `COC[C@@H](C)NC(=O)c1cc(-c2ccc(Cl)cc2Cl)cc(N(C)C(=O)C(C)C)c1`, the inhibition result is “Active”.
As for `Cc1ccc(-c2cc(C(=O)NC(C)c3cnccn3)cc(N(C)C(=O)C(C)C)c2)cc1` (configuration not stated), the inhibition entry is “Active”.
With `CCN(C(=O)c1ccncc1)c1cc(C(=O)NC(C)COC)cc(-c2ccc(C)cc2)c1` (configuration not stated), the inhibition entry is “Active”.
Under `CCC(C)(C)C(=O)N(C)c1cc(C(=O)NC(C)c2cnccn2)cc(-c2ccc(C)cc2)c1` (configuration not stated) stands “Active”; under `COCC(C)NC(=O)c1cc(NC(=O)c2ccc(C)s2)cc(-c2ccc(C)cc2)c1` (configuration not stated), “Active”.
In the case of `CCC(=O)N(C)c1cc(C(=O)NC(C)COC)cc(-c2ccc(C)cc2)c1` (configuration not stated) it was “Active”; in that of `Cc1ccc(-c2cc(C(=O)N[C@@H](C)CO)cc(N(C)C(=O)C(C)C)c2)cc1`, “Active”.
In the case of `Cc1ccc(-c2cc(C(=O)N[C@@H](C)CO)cc(N(C)C(=O)C(C)C)c2)c(Cl)c1` it was “Active”; in that of `CCN(C(=O)COC)c1cc(C(=O)NC(C)c2cnccn2)cc(-c2ccc(C)cc2)c1` (configuration not stated), “Active”; in that of `Cc1ccc(-c2cc(NC(=O)C(C)C)cc(C(=O)NC(C)c3cnccn3)c2)cc1` (configuration not stated), “Active”.
For `Cc1ccc(-c2cc(C(=O)NC(C)c3cnccn3)cc(N(C)C(=O)C3CCOCC3)c2)cc1` (configuration not stated), the inhibition entry was “Active”.
Under `CCN(C(C)=O)c1cc(C(=O)NC(C)c2cnccn2)cc(-c2ccc(C)cc2)c1` (configuration not stated) stands “Active”; under `CCC(=O)N(C)c1cc(C(=O)N[C@H](C)CN2CCOCC2)cc(-c2ccc(C)cc2)c1`, “Active”; under `CCNC(=O)N(C)c1cc(C(=O)NC(C)c2cnccn2)cc(-c2ccc(Cl)cc2)c1` (configuration not stated), “Active”.
Under `COCC(C)NC(=O)c1cc(NC(=O)c2ccc(C)cc2C)cc(-c2ccc(C)cc2)c1` (configuration not stated) stands “Active”.
In the case of `COC[C@@H](C)NC(=O)c1cc(-c2ccc(F)cc2F)cc(N(C)C(=O)C(C)C)c1` it was “Active”; in that of `CCC(CC)C(=O)N(C)c1cc(C(=O)NC(C)c2cnccn2)cc(-c2ccc(C)cc2)c1` (configuration not stated), “Active”.
As to `COCC(C)NC(=O)c1cc(NC(=O)c2ccc(F)cc2Cl)cc(-c2ccc(C)cc2)c1` (configuration not stated), the inhibition entry was “Active”.
For the molecule `CCN(C(=O)c1cccnc1)c1cc(C(=O)NC(C)c2cnccn2)cc(-c2ccc(C)cc2)c1` (configuration not stated), the inhibition entry is “Active”.
As for `CC(=O)N(C)c1cc(C(=O)NC(C)c2cnccn2)cc(-c2ccc(C)cc2)c1` (configuration not stated), the inhibition result is “Active”.
For `COCC(C)NC(=O)c1cc(NC(=O)c2cscc2OC)cc(-c2ccc(C)cc2)c1` (configuration not stated), the inhibition result was “Active”.
In the case of `COCC(C)NC(=O)c1cc(NC(=O)c2cc(C)cs2)cc(-c2ccc(C)cc2)c1` (configuration not stated) it was “Active”.
Under `Cc1ccc(-c2cc(C(=O)NC(C)c3cnccn3)cc(N(C)C(=O)C(C)C)c2)nc1` (configuration not stated) stands “Active”; under `CC(NC(=O)c1cc(-c2ccc(Cl)cc2)cc(N(C)C(=O)N2CCOCC2)c1)c1cnccn1` (configuration not stated), “Active”; under `Cc1ccc(-c2cc(C(=O)NCc3cnccn3)cc(N(C)C(=O)C(C)C)c2)c(Cl)c1`, “Active”.
As for `COCC(C)NC(=O)c1cc(NC(=O)c2ccccc2)cc(-c2ccc(C)cc2)c1` (configuration not stated), the inhibition result was “Active”.
In the case of `COCC(C)NC(=O)c1cc(NC(=O)c2ccc(C(F)(F)F)cc2Cl)cc(-c2ccc(C)cc2)c1` (configuration not stated) it was “Active”.
Turning to `COCC(C)NC(=O)c1cc(NC(=O)c2cc(C)on2)cc(-c2ccc(C)cc2)c1` (configuration not stated), the inhibition entry was “Active”.
Under `CCN(C(=O)OC)c1cc(C(=O)NC(C)c2cnccn2)cc(-c2ccc(C)cc2)c1` (configuration not stated) stands “Active”.
In the case of `COCC(=O)N(C)c1cc(C(=O)NC(C)c2cnccn2)cc(-c2ccc(C)cc2)c1` (configuration not stated) it was “Active”; in that of `CCN(C(=O)C(C)C)c1cc(C(=O)NC(C)c2cnccn2)cc(-c2ccc(C)cc2)c1` (configuration not stated), “Active”.
As to `CCN(C(=O)OC(C)C)c1cc(C(=O)NC(C)c2cnccn2)cc(-c2ccc(C)cc2)c1` (configuration not stated), the inhibition result was “Active”.
With `Cc1ccc(-c2cc(C(=O)NC(C)c3cnccn3)cc(N(C)C(=O)C3CCCCC3)c2)cc1` (configuration not stated), the inhibition entry was “Active”.
Under `CCC(C)C(=O)N(C)c1cc(C(=O)NC(C)c2cnccn2)cc(-c2ccc(C)cc2)c1` (configuration not stated) stands “Active”; under `COCC(C)NC(=O)c1cc(NC(=O)c2sccc2C)cc(-c2ccc(C)cc2)c1` (configuration not stated), “Active”; under `Cc1ccc(-c2cc(C(=O)NCc3cnccn3)cc(N(C)C(=O)C(C)C)c2)cc1`, “Active”.
Under `Cc1ccc(-c2cc(C(=O)NC(C)c3cnccn3)cc(N(C(=O)C(C)C)c3ccncn3)c2)cc1` (configuration not stated) stands “Active”.
In the case of `CCN(C(=O)C(C)C)c1cc(C(=O)N[C@@H](C)CO)cc(-c2ccc(C)cc2)c1` it was “Active”; in that of `CCN(c1cc(C(=O)NC(C)c2cnccn2)cc(-c2ccc(C)cc2)c1)c1cnccn1` (configuration not stated), “Active”; in that of `Cc1ccc(-c2cc(C(=O)NC(C)c3cnccn3)cc(N(C)C(=O)C(C)(C)C)c2)cc1` (configuration not stated), “Active”.
As to `COCC(C)NC(=O)c1cc(NC(=O)c2ccccn2)cc(-c2ccc(C)cc2)c1` (configuration not stated), the inhibition result is “Active”.
Take `Cc1ccc(-c2cc(C(=O)NCc3cnc(C)cn3)cc(N(C)C(=O)C(C)C)c2)nc1`: the inhibition entry is “Active”.
With `CC(C)C(=O)N(C)c1cc(C(=O)NC(C)c2cnccn2)cc(-c2ccc(Cl)cn2)c1` (configuration not stated), the inhibition entry was “Active”.
As for `Cc1ccc(-c2cc(C(=O)N[C@@H](C)CO)cc(N(C)C(=O)C(C)C)c2)nc1`, the inhibition result was “Active”.
Turning to `Cc1ccc(-c2cc(C(=O)NCc3cnc(C)cn3)cc(N(C)C(=O)C3(C)COC3)c2)nc1`, the inhibition result was “Active”.
With `CC(C)C(=O)N(C)c1cc(C(=O)NC(C)c2cnccn2)cc(-c2ccc(F)cc2F)c1` (configuration not stated), the inhibition result is “Active”.
Under `COCC(C)NC(=O)c1cc(NC(=O)C2CCCCC2)cc(-c2ccc(C)cc2)c1` (configuration not stated) stands “Active”; under `CCN(C(=O)CC(C)C)c1cc(C(=O)NC(C)CO)cc(-c2ccc(C)cc2)c1` (configuration not stated), “Active”.
As to `COCC(C)NC(=O)c1cc(NC(=O)c2c(-c3ccccc3)noc2C)cc(-c2ccc(C)cc2)c1` (configuration not stated), the inhibition result was “Active”.
For the molecule `COCC(C)NC(=O)c1cc(NC(=O)c2cccs2)cc(-c2ccc(C)cc2)c1` (configuration not stated), the inhibition result was “Active”.
Regarding `COCC(C)NC(=O)c1cc(NC(=O)c2nc(C)oc2C)cc(-c2ccc(C)cc2)c1` (configuration not stated), the inhibition result is “Active”.
`CCC(=O)N(c1cc(C(=O)NC(C)c2cnccn2)cc(-c2ccc(C)cc2)c1)c1ccncn1` (configuration not stated): the inhibition entry was “Active”.
Consider `COCC(C)NC(=O)c1cc(NC(=O)c2cc(C)nn2C)cc(-c2ccc(C)cc2)c1` (configuration not stated), for which the inhibition result is “Active”.
Under `Cc1ccc(-c2cc(C(=O)NC(C)c3cnccn3)cc(N(C)C(=O)C(C)C)c2)c(Cl)c1` (configuration not stated) stands “Active”.
